# Source: article PMC8745345, “Hydroxy Pentacyclic Triterpene Acid, Kaempferol, Inhibits the Human 5-Hydroxytryptamine Type 3A Receptor Activity” (International Journal of Molecular Sciences, 2022)
# Substitutions are numbered along the chain they refer to.
# What was measured:
# [1] = biological target: T1, human 5-HT3A receptor T154A mutant (Homo sapiens, UniProt P46098, T176A); experiment: Two-electrode voltage clamp, I5-HT inhibition, T154A mutant; format: cell-based; details: −80 mV
# T1 sequence (P46098 24-478 T176A): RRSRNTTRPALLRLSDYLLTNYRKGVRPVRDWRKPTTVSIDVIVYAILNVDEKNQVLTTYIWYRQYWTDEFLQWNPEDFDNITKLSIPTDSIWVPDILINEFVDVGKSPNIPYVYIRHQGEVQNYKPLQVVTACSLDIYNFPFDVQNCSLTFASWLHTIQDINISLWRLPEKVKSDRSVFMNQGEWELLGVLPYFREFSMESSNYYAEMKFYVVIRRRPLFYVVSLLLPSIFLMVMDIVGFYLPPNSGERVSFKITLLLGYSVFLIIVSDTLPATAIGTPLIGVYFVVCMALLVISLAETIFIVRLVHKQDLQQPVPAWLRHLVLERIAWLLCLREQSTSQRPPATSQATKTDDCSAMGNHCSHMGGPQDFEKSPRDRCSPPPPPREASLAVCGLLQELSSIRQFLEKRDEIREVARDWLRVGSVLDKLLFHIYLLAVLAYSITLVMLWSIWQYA
# Protocol: Xenopus oocytes were used in this study as cells for expression of human 5-HT3A receptor. All female frogs used in this experiment were obtained from the Korean Xenopus Resource Center for Research (KXRCR000001). […] Xenopus oocytes were extracted during ice incubation state and isolated as single oocytes using collagenase II (2 mg/mL) in OR2 buffer (82.5 mM NaCl, 2 mM KCl, 1 mM MgCl2, 5 mM HEPES, pH 7.4). Isolated oocytes were incubated with ND96 incubation buffer (96 mM NaCl, 2 mM KCl, 1 mM MgCl2, 1.8 mM CaCl2, 5 mM HEPES, 2.5 mM sodium pyruvate, and 50 mg/mL gentamycin, pH 7.4) at 18 °C until the experiment was performed. Human 5-HT3A receptor mRNA was injected into oocytes using a nanoinjector (Drummond Scientific, Broomall, PA, USA) with a mineral-filled 10 μL microdispenser (VWR, Piscataway, NJ, USA).
# To confirm the KAE activity on the human 5-HT3A receptor, a two-electrode voltage clamp (OC-725C; Warner Instruments, Hamden, CT, USA) with a Digitata 1550A was used. For the experiment, induced-inward current was converted to digital data with pClamp 10 software (Axon Instruments, Union City, CA, USA). All experiments were performed at room temperature using an oocyte clamp equipped with Digidata. The membrane holding potential was −80 mV.
# [2] = biological target: T2, human 5-HT3A receptor I210A mutant (Homo sapiens, UniProt P46098); experiment: Two-electrode voltage clamp, I5-HT inhibition, I210A mutant; format: cell-based; details: −80 mV
# T2 sequence (P46098 24-478): T1 sequence (P46098 24-478 T176A) with A153T
# Protocol: Human 5-HT3A receptor cDNA was linearized using restriction enzyme XhoI. In vitro transcription was performed using an mMESSAGE mMACHINE T7 Transcription Kit (Thermo Fisher Scientific, Waltham, MA, USA). The final mRNA product was dissolved in 1X Diethyl Pyrocarbonate (RNase-free water) at a final concentration of 1 μg/μL and kept in a deep-freezer at −80 °C until used.
# Xenopus oocytes were used in this study as cells for expression of human 5-HT3A receptor. All female frogs used in this experiment were obtained from the Korean Xenopus Resource Center for Research (KXRCR000001). Xenopus management followed the guideline of Chonnam National University institution guidelines (CNU IACUC-YB-2016-07, July 2016). Xenopus oocytes were extracted during ice incubation state and isolated as single oocytes using collagenase II (2 mg/mL) in OR2 buffer (82.5 mM NaCl, 2 mM KCl, 1 mM MgCl2, 5 mM HEPES, pH 7.4). […]
# The voltage relationship experiment for confirming the relationship between induce-inward current and voltage, the voltage was varied from −80 mV to +60 mV using a ramp protocol. […] All recording data were analyzed using Clampfit 9.0 (Molecular Devices, San Jose, CA, USA). […]
# All presented experiments were performed at least three times for scientific verification. […] Induced-inward current data were analyzed with SigmaPlot 10.0 software (Systat Software, Inc., San Jose, CA, USA). […]
smiles,measurement,setting,value
"O=c1c(O)c(-c2ccc(O)cc2)oc2cc(O)cc(O)c12 [KAE, kaempferol]",IC50,[1],33.4 ± 7.9 µM
same,Vmax,[1],73.5 ± 9.4%
same,n (Hill coefficient),[1],1.1 ± 0.4
same,IC50,[2],35.4 ± 9.7 µM
same,n (Hill coefficient),[2],1.8 ± 0.5
